Starred links: 1 amine or outer side, 2 acyl side, 3 side chain; linkers in the order of their positions; H or OH if unused. Positions of bridges follow the written chain, without caps; N, C: chain ends. Non-standard residues stand in square brackets, D forms with d. Residues, ends and D or L forms follow the SMILES beside them. No end group written: not given here. Trp(2-yl) = O=C([C@H](Cc1c([*:3])[nH]c2ccccc12)N[*:1])[*:2]; {TAMRA} = TAMRA dye attached N-terminally via two o linkers; {Cys} = C-terminal o linker then cysteine amide; Leu(4R-OH,5-OH) = C[C@](O)(CO)C[C@H](N)C(=O)O; cisHyp = O=C(O)[C@@H]1C[C@H](O)CN1
Experiments:
[1] = tested on: HeLa cells; assay: Translocation of PNA into HeLa cells (fluorescence microscopy); type: cell-based, human; conditions: PNA without pHLIP, pH 7.4 or 6.5 (data not shown)
[2] = tested on: actin filaments; conditions: cited from earlier work
[3] = tested on: HeLa cells; assay: Translocation and release of Phalloidin-TRITC in HeLa cells (fluorescence microscopy of actin filaments); type: cell-based, human; conditions: pH 6.0-7.4, in the presence or absence of peptide (not conjugated)
Source text: To test the ability of pHLIP to translocate peptides across the cell membrane a water soluble cyclic peptide, phalloidin, from the Amanita phalloicles mushroom was chosen. […] Fluorescent phalloidin is commonly used to label actin filaments in permealized cells. Actin filaments stained with fluorescent phalloidin have an easily recognizable filamentous pattern, which cannot be mistaken for the other cellular structures, organelles or membrane staining. Therefore the delivery of fluorescent phalloidin by pHLIP into live cells can easily be verified by fluorescence microscopy. Fluorescently labeled phalloidin (Phalloidin-TRITC) via an S-S bond to the C-terminus of pHLIP was conjugated using a bifunctional cross-linker. Cells were incubated with a pHLIP-S-S-Phalloidin-TRITC cleavable construct at different pHs and subsequently washed with cell culture medium solution, pH 7.4. […]
For the fluorescence microscopy studies, the cells were grown in 35 mm dishes with 10 mm glass bottom windows coated with collagen. […] The medium pH was measured before and after incubation. […] Fluorescent images were taken using an inverted epi-fluorescence microscope Olympus IX71. […] Each time fluorescence microscopy experiments were performed and observed the translocation of cargo by pHLIP, it was verified that the labeled cells were alive by using of dead cell marker SYTOX-Green (Molecular Probes).

[4] = tested on: HeLa cells; assay: Cytotoxicity assay (CellTiter 96 AQueous One colorimetric); type: cell-based, human; conditions: concentrations up to 16 μM, 24 hrs, physiological conditions
Procedure: (§1) The peptide's cytotoxicity and its ability to induce membrane leakage was investigated. […] Membrane leakage was tested by incubation of HeLa cells at various concentrations of peptide (up to 10 μM) at pH 7.4 and 6.5 for 1 hr, followed by the addition of cell-impermeable agents: Phalloidin-TRITC and nuclear-staining SYTOX-Orange. […] The uptake of Phalloidin-TRITC or SYTOX-Orange was 10 times less than the uptake in cells treated with triton, which used for cell membrane permeabilization.
Cytotoxicity was tested using a standard colorimetric assay according to an established protocol provided by Promega, Inc. HeLa cells were loaded in the wells of 96 well plates (20,000 cells per well), incubated for 24 hours in DMEM supplemented with 10% FBS, 100 units/ml penicillin, 0.1 mg/ml streptomycin, 2 mM glutamine in a humidified atmosphere of 5% CO2 and 95% air at 37° C. The growth medium was then replaced with the same medium but containing 1% of FBS and increasing amounts of pHLIP (0.5, 1, 2, 4, 8 and 16 μM). After 24 hours of incubation, the solution was replaced with DMEM and a colorimetric reagent (CellTiter 96 AQueous One Solution Assay) was added for 1 hour followed by measuring absorbance at 490 nm in the plate-reader. All samples were prepared in triplicate.

[5] = tested on: HeLa cells; assay: Membrane leakage assay with cell-impermeable Phalloidin-TRITC and SYTOX-Orange; type: cell-based, human; conditions: peptide up to 10 μM, 1 hr, pH 6.5 or 7.4
Procedure: as §1
HeLa cells were loaded in 96 well plates (2,000 cells per well), incubated for 24 hours in DMEM supplemented with 10% FBS, 100 units/ml penicillin, 0.1 mg/ml streptomycin, 2 mM glutamine in a humidified atmosphere of 5% CO2 and 95% air at 37° C. The growth medium was then replaced with PBS buffer containing 1 mM CaCl2 and 1 mM MgCl2 at pH7.4 or 6.5 and increasing amounts of the peptide (0.5, 2, 5 and 10 μM). After 1 hour, 2 μM of Phalloidin-TRITC and 0.5 μM of SYTOX-Orange (Molecular Probes) were added for 10 min and, then, washed with PBS buffer, pH7.4. The rhodamine fluorescence was measured at 580 nm with excitation at 544 nm by plate-reader. The cell membrane was subsequently disrupted by adding 0.5% Triton-100 and a new portion of the 2 μM of Phalloidin-TRITC and 0.5 μM of SYTOX-Orange followed by washing with PBS. The fluorescence signal was detected before and after washing, respectively. […]

[6] = tested on: mice; assay: Toxicity study in mice, single intravenous injection; type: in vivo, mouse; conditions: single intravenous injection 4 mg/kg, female and male mice, observed 6 weeks
Procedure: Preliminary toxicity study was carried out. 100 μl of 150 μM of peptide was given as a single injection in vein tail to 4 female C3D2F1 and 4 male C57/B1 mice. The final concentration was 4 mg/kg. Mice were observed by a veterinarian the day after an injection and during the next 6 weeks.

[7] = tested on: HeLa cells; conditions: literature report; cited from earlier work
[8] = tested on: HeLa cells; assay: pH-dependent delivery of dansyl dye into live HeLa cells (fluorescence microscopy); type: cell-based, human; conditions: dye alone, without peptide
Procedure: pHLIP conjugated via a disulfide bond to dansyl dye (FIG. 3a) was tested for delivery of the dye into live HeLa cells at different pHs (FIG. 3b). The cells were incubated with the fluorescently-labeled peptide for 15 min at pH 5.5, 6.5, 7.0 or 7.4 and then washed at pH 7.4 to remove any reversibly bound peptide. […] The relative uptakes were 18%, 48%, 78% and 100% at pH7.4, 7.0, 6.5 and pH5.5, respectively.
For the fluorescence microscopy studies, the cells were grown in 35 mm dishes with 10 mm glass bottom windows coated with collagen. Cells were washed with PBS buffer containing 1 mM CaCl2 and 1 mM MgCl2 with pH 5.5, 6.5, 7.0 or 7.4 and then incubated in PBS at the experimental pH in the absence or presence of varied concentrations (0.1-7 μM) of the pHLIP-S-S-dansyl, pHLIP-dye (TexasRed or Rhodamine), pHLIP-S-S-Phalloidin-TRITC, pHLIP-Phalloidin-TRITC or pHLIP-S-S-PNA-TAMRA constructs. The medium pH was measured before and after incubation. The time of incubation was varied from 15 to 60 min. […] Fluorescent images were taken using an inverted epi-fluorescence microscope Olympus IX71. […] Each time fluorescence microscopy experiments were performed and observed the translocation of cargo by pHLIP, it was verified that the labeled cells were alive by using of dead cell marker SYTOX-Green (Molecular Probes).

[9] = tested on: Human tumor MDA-MB-231; assay: Whole-body fluorescence imaging of nude mice bearing MDA-MB-231 tumor; type: in vivo, mouse; conditions: 100 μl of 50 μM into tail vein, 3 mm tumor; time point not stated
Procedure: To study the pHLIP distribution in vivo, covalently attached to the pHLIP near […] infrared fluorescent dye Cy5.5 was injected into mice bearing tumor and performed whole-body fluorescence imaging. Human tumor MDA-MB-231 was originated by injection of tumor cells (2×10^7 cells/flank/0.2 ml) in the right flank of adult athymic female nude mice. When the tumor reached the size of 3 mm in diameter, 100 μl of 50 μM of Cy5.5 alone or Cy5.5 covalently attached to the pHLIP was given as a single injection into vein tail. The imaging was performed immediately, after 1, 2, 4 hour and next day after 24 hours (FIGS. 9 and 10). The dye and peptide-dye accumulated in liver and kidney, the organs, which usually readily absorb any compounds. The ratios of (liver+kidney)/tumor were 5.9 and 3.6 in mice to which dye alone and pHLIP-dye were injected accumulation for mice. […] The accumulation of pHLIP-Cy5.5 in tumor was in 1.6 times higher than accumulation of dye alone. The ration of (liver+kidney)/tumor was 1.6 and 2.6 for pHLIP-Cy5.5 and Cy5.5 alone, respectively.
Human breast adenocarcinoma MDA-MB-231 (HTB-26, ATCC) cells was cultured in Leibovitz's L-15 medium supplemented with 10% fetal bovine serum, 100 units/ml penicillin, 0.1 mg/ml streptomycin, 2 mM glutamine in humidified atmosphere of 5% CO2 and 95% air at 37° C. […]

Question: For “TAMRA-o-o-CATAGTATAAGT-o-Cys-NH2 (all peptide nucleic acid (PNA), 5' {TAMRA}, 3' {Cys}) [PNA-TAMRA]”, which “translocation through the cell membrane” value [1] is on record?
Answer: No translocation

Question: Which “lowering of the critical concentration for actin polymerization” value [2] does the source give for C[C@@H]1NC(=O)[C@H](C[C@@](C)(O)CO)NC(=O)[C@@H]2Cc3c([nH]c4ccccc34)SC[C@H](NC(=O)[C@@H]([C@H](C)O)NC1=O)C(=O)N1C[C@@H](O)C[C@H]1C(=O)N[C@@H](C)C(=O)N2 [Phalloidin] (cyclo(A[dT]C[cisHyp]A[Trp(2-yl)][Leu(4R-OH,5-OH)]); thioether 3-6) here?
Answer: up to 30 fold

Question: Which “fluorescent staining of actin filaments” value [3] does the source give for Phalloidin-TRITC here?
Answer: did not give fluorescent staining of actin filaments

Question: Which results are given for “AAEQNPIYWARYADWLFTTPLLLLDLALLVDADEGTCG [pHLIP]”?
Answer: cell viability [4]: does not affect cell viability; uptake of Phalloidin-TRITC or SYTOX-Orange in peptide-treated cells [5]: no increase in uptake; uptake of Phalloidin-TRITC or SYTOX-Orange relative to cells treated with triton [5]: 10 times less; physiological and behavioral changes [6]: No physiological and behavioral changes

Question: For C/C1=C\[C@H](C)C[C@H](C)OC(=O)C[C@H](c2ccc(O)cc2)NC(=O)[C@@H](Cc2c(Br)[nH]c3ccccc23)N(C)C(=O)[C@H](C)NC(=O)[C@@H](C)C1 [Jasplakinolide], which “multinucleation of cells (reported)” value [7] is on record?
Answer: appearance of multinucleated cells

Question: For dansyl, which penetration of cells [8] is on record?
Answer: does not penetrate cells

Question: Which “ratio of (liver+kidney)/tumor, first statement” value [9] does the source give for CCN1\C(=C/C=C/C=C/C2=[N+](CCCCCC(=O)O)c3ccc4c(S(=O)(=O)O)cc(S(=O)(=O)O)cc4c3C2(C)C)C(C)(C)c2c1ccc1c(S(=O)(=O)[O-])cc(S(=O)(=O)O)cc21 [Cy5.5] here?
Answer: 5.9

Question: What about the “ratio of (liver+kidney)/tumor, second statement” value [9] of the same compound?
Answer: 2.6
